Entries after “also recorded” stand apart in the source; their conditions may differ.
Tests used:
RAW 264.7 cells [1] = assay: Cell-permeability of FITC-labeled SOCS3 recombinant proteins (flow cytometry); assay type: cell-based; settings: 10 μM FITC-labeled protein, 1 hr, 37° C.
Protocol: (§1) To examine cell-permeability of SOCS3 recombinant protein, SOCS3 recombinant proteins were conjugated to 5/6-fluorescein isothiocyanate (FITC). RAW 264.7 (KCLB, Seoul, South Korea) (FIG. 20) or NIH3T3 cells (KCLB, Seoul, South Korea) (FIG. 21) were treated with 10 μM FITC-labeled SOCS3 recombinant proteins and cultivated for 1 hr at 37° C.
In this regard, RAW 264.7 cells were cultured in a DMEM medium containing 10% fetal bovine serum (FBS, Hyclone, USA) and […] of 1% penicillin/streptomycin (Hyclone, USA).
(§2) After cultivation, the cells were washed three times with ice-cold PBS (Phosphate-buffered saline, Hyclone, USA) and treated with proteinase K (10 μg/mL, SIGMA, USA) to remove surface-bound proteins, and internalized proteins were measured by flow cytometry (FlowJo cytometric analysis software, Guava, Millipore, Darmstadt, Germany). Untreated cells (gray) and equimolar concentration of unconjugated FITC (FITC only, green)-treated cells were served as control (FIG. 20). Each of NIH3T3 cells was incubated for 1 hour at 37° C. with 10 μM FITC-labeled SOCS3 protein. For nuclear staining, a mixture of […] Mounting Medium (Vector laboratories, Burlingame, Calif.) and DAPI (4′,6-diamidino-2-phenylindole) was added to NIH3T3 cells, and visualized using a confocal laser microscope (LSM700, Zeiss, Germany) (FIG. 21).

TNF-α = assay: LPS/IFN-γ-induced cytokine secretion in peritoneal macrophages (cytometric bead array), TNF-α; assay type: cell-based, C3H/HeJ mice; settings: 10 μM protein; IFN-γ and LPS
Protocol: (§3) Peritoneal macrophages were obtained from C3H/HeJ mice (Doo-Yeol Biotech Co. Ltd. Korea) Peritoneal macrophages were incubated with 10 μM SOCS3 recombinant proteins (1:HS3, 2:HM165S3, 3:HM165S3A and 4:HM165S3B, respectively) for 1 hr at 37° C. and then stimulated them with LPS (Lipopolysaccharide)(500 ng/ml) and/or IFN-γ (100 U/ml) without removing iCP-SOCS3 proteins for 3, 6, or 9 hrs. The culture media were collected, and the extracellular levels of cytokine (TNF-α, IL-6) were measured by a cytometric bead array (BD Pharmingen, San Diego, Calif., USA) according to the manufacturer's instructions.

NIH3T3 cells = assay: Intracellular delivery and localization of FITC-labeled SOCS3 recombinant proteins (confocal microscopy); assay type: cell-based, mouse; settings: 10 μM FITC-labeled SOCS3 protein, 1 hour, 37° C.
Protocol: as §1, §2

[2] = Solubility/yield of SOCS3 recombinant proteins expressed and purified from E. coli; assay type: physicochemical
Protocol: Thereafter, the recombinant protein gene-introduced E. coli was inoculated in 7 ml of LB medium, and then incubated at 37° C. overnight. The E. coli was inoculated in 700 ml of LB medium and incubated at 37° C. until OD600 reached 0.6. To this culture medium, 0.6 mM of isopropyl-β-D-thiogalactoside (IPTG, Gen Depot, USA) was added as a protein expression inducer, followed by further incubation at 37° C. for 3 hours. This culture medium was centrifuged at 4° C. and 8,000 rpm for 10 minutes and a supernatant was discarded to recover a cell pellet. The cell pellet thus recovered was suspended in a lysis buffer (100 mM NaH2PO4, 10 mM Tris-HCl, 8 M Urea, pH 8.0), and cells were disrupted by sonication (on/off time: 30 sec/30 sec, on time 2 hours, amplify 40%), and centrifuged at 15,000 rpm for 30 min to obtain a soluble fraction and an insoluble fraction.
After purification, the proteins were put in a SnakeSkin Dialysis Tubing bag (pore size: 10000 mw, Thermo scientific, USA) and then they were dialyzed by physiological buffer (DMEM). The strain lysate where protein expression was not induced, the strain lysate where protein expression was induced by addition of IPTG, and purified proteins were loaded on SDS-PAGE to analyze protein expression characteristics and expression levels (FIGS. 19 and 20).
Solubility of aMTD/SD-fused SOCS3 proteins was scored on a 5 point scale compared with that of SOCS3 proteins lacking the solubilization domain.

STAT3 = assay: Inhibition of IFN-γ-induced STAT phosphorylation in PANC-1 cells (western blot), STAT3; assay type: cell-based; settings: PANC-1, 10 ng/ml IFN-γ 15 min, 10 μM protein 2 hrs
Protocol: (§4) PANC-1 Cells (KCLB, Seoul, South Korea) were treated with 10 ng/ml IFN-γ (R&D systems, Abingdon, UK) for 15 min and treated with either DMEM (vehicle) or 10 μM aMTD/SD-fused SOCS3 recombinant proteins for 2 hrs. The cells were lysed in RIPA lysis buffer (Biosesang, Seongnam, Korea) containing proteinase inhibitor cocktail (Roche, Indianapolis, Ind., USA), incubated for 15 min at 4° C., and centrifuged at 13,000 rpm for 10 min at 4° C. Equal amounts of lysates were separated on 10% SDS-PAGE gels and transferred to a nitrocellulose membrane. The membranes were blocked using 5% skim milk in TBST and for western blot analysis incubated with the following antibodies: anti-phospho-STAT1 (Cell Signaling Technology, USA) and anti-phospho-STAT3 (Cell Signaling Technology, USA), then HRP conjugated anti-rabbit secondary antibody (Santacruz).
as §4, with “(vehicle) or 1, 5, 10 μM” for “(vehicle) or 10 μM”, “following antibodies: anti-phospho-STAT3 (Cell” for “following antibodies: anti-phospho-STAT1 (Cell Signaling Technology, USA) and anti-phospho-STAT3 (Cell”

IL-6 = assay: LPS/IFN-γ-induced cytokine secretion in peritoneal macrophages (cytometric bead array), IL-6; assay type: cell-based, C3H/HeJ mice; settings: 10 μM protein; IFN-γ and LPS
Protocol: as §3

HepG2 cells = assay: Cell-permeability of FITC-labeled SOCS3 recombinant proteins in hepatocellular carcinoma cells (flow cytometry); assay type: cell-based, human; settings: 10 μM FITC-labeled protein, 1 hr, 37° C.
Protocol: HepG2 cells (ATCC, Manassas, Va., USA) were seeded in a 12 well plate, grown to 90% confluence. Cells were treated with 10 μM FITC-labeled iCP-SOCS3 recombinant proteins and cultivated for 1 hr at 37° C.
After cultivation, the cells were treated with proteinase K (10 ug/mL, SIGMA, USA) and washed three times with ice-cold PBS (Phosphate-buffered saline, Hyclone, USA) to remove surface-bound proteins, and internalized proteins were measured by flow cytometry (FlowJo cytometric analysis software, Guava, Millipore, Darmstadt, Germany). Untreated cells (gray) and equimolar concentration of unconjugated FITC (FITC only, green)-treated cells were served as control (FIG. 57).

STAT1 = assay: Inhibition of IFN-γ-induced STAT phosphorylation in PANC-1 cells (western blot), STAT1; assay type: cell-based; settings: PANC-1, 10 ng/ml IFN-γ 15 min, 10 μM protein 2 hrs
Protocol: as §4

RAW 264.7 cells [3] = assay: Quantitative cell-permeability of FITC-labeled aMTD- or rPeptide-fused CRA recombinant proteins (flow cytometry); assay type: cell-based; settings: for Relative Ratio (Fold) A: cell-permeability of aMTD-fused CRA recombinant protein relative to negative control (A: rP38); for Relative Ratio (Fold) B: cell-permeability of aMTD-fused CRA recombinant protein relative to reference CPP (B: MTM12); for Relative Ratio (Fold) C: cell-permeability of aMTD-fused CRA recombinant protein relative to reference CPP (C: MTD85)
Outline: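 Uptake of fluorescently labeled, peptide-fused cargo proteins was quantified by flow cytometry (Guava, Millipore) and analyzed in FlowJo software. RAW 264.7 cells received 10 μM FITC-labeled protein for 1 hour at 37° C., were rinsed three times with cold PBS, and were trypsinized with 0.25% tripsin/EDTA for 20 minutes at 37° C. to remove bound protein before measurement. Permeability was expressed relative to reference proteins.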

AGS cells = assay: Induction of apoptosis by Annexin V/7-AAD staining in gastric carcinoma cells; assay type: cell-based; settings: 10 uM, 14 hours
Protocol: AGS cells (gastric carcinoma cell line) (American Type Culture Collection; ATCC) were seeded in a 12-well plate at a density of 1×10^5 cells/well, and then treated with 10 uM of aMTD/SD-fused SOCS3 for 14 hours. Cancer cell death was analyzed by Annexin V analysis. Annexin V/7-Aminoactinomycin D (7-AAD) staining was performed using flow cytometry according to the manufacturer's guidelines (BD Pharmingen, San Diego, Calif., USA). Briefly, cells were washed three times with ice-cold PBS. The cells were then resuspended in 100 μl of binding buffer and incubated with 1 μl of 7-AAD and 1 μl of annexin V-PE for 30 min in the dark at 37° C. Flow cytometric analysis was immediately performed using a guava easyCyte™ 8 Instrument (Merck Millipore, Darmstadt, Germany).

HS3: His-tagged SOCS3 recombinant protein lacking an aMTD and a SD [reference compound]
cell-permeability (protein uptake) (RAW 264.7 cells [1]): did not appear to enter cells
effect on TNF-α secretion (TNF-α): unchanged
intracellular delivery and localization (NIH3T3 cells): did not appear to enter cells
solubility (tendency to precipitate) ([2]; expressed and purified in E. coli): largely insoluble; also recorded: less soluble
IFN-γ-induced phosphorylation of STAT3 (STAT3): STAT phosphorylation was readily detected
effect on IL-6 secretion (IL-6): unchanged
transduction into HepG2 cells (HepG2 cells): did not appear to enter cells
IFN-γ-induced phosphorylation of STAT1 (STAT1): STAT phosphorylation was readily detected

934 (LILAPAAVVAAA; Amino acid Sequence of rPeptide ID 934) [compound 934]
Relative Ratio to aMTD AVE (RAW 264.7 cells [3]; cell-permeability of rPeptide-fused CRA recombinant protein relative to average of 240 aMTDs, 10 μM FITC-labeled, 1 hour, 37° C., RAW 264.7 cells): 0.28

788 (AIAVAIAPVALP; Amino acid Sequence of aMTD788) [compound 788]
Relative Ratio (Fold) A (RAW 264.7 cells [3]): 9.8 Fold
Relative Ratio (Fold) B (RAW 264.7 cells [3]): 6.6 Fold
Relative Ratio (Fold) C (RAW 264.7 cells [3]): 3.3 Fold

382 (AAALVIPAILAP; Amino acid Sequence of aMTD382) [compound 382]
Relative Ratio (Fold) A (RAW 264.7 cells [3]): 17.7 Fold
Relative Ratio (Fold) B (RAW 264.7 cells [3]): 11.8 Fold
Relative Ratio (Fold) C (RAW 264.7 cells [3]): 6.0 Fold

341 (IVAVALPAVLAP; Amino acid Sequence of aMTD341) [compound 341]
Relative Ratio (Fold) A (RAW 264.7 cells [3]): 16.4 Fold
Relative Ratio (Fold) B (RAW 264.7 cells [3]): 10.9 Fold
Relative Ratio (Fold) C (RAW 264.7 cells [3]): 5.5 Fold

B1: M165S3B: his-tag-removed aMTD165-SOCS3-SDB recombinant protein (protein)
chain: ALAVPVALAIVPVTHSKFPAAGMSRPLDTSLRLKTFSSKSEYQLVVNAVRKLQESGFYWSAVTGGEANLLLSAEPAGTFLIRDSSDQRHFFTLSVKTQSGTKNLRIQCEGGSFSLQSDPRSTQPVPRFDCVLKLVHHYMPPPGAPSFPSPPTEPSSEVPEQPSAQPLPGSPPRRAYYIYSGGEKIPLVLSRPLSSNVATLQHLCRKTVNGHLDSYEKVTQLPGPIREFLDQYDAPLMAEQSDKDVKYYTLEEIQKHKDSKSTWLILHHKVYDLTKFLEEHPGGEEVLGEQAGGDATENFEDVGHSTDARELSKTYIIGELHPDDRSKIAKPSETL
modifications: Amino acid sequence of E.coli codon usage optimized M165S3B′
notes: his-tag-removed aMTD165-SOCS3-SDB recombinant protein
induction of apoptosis (Annexin V) (AGS cells): showed high anticancer efficacy; also recorded: efficacy equivalent to or higher than HM165S3B
cell-permeability (protein uptake) (RAW 264.7 cells [1]): high cell permeability
solubility/yield [2]: high solubility/yield

Reference: patent US10385103B2, “Cell-permeable (ICP)-SOCS3 recombinant protein and uses thereof” (CELLIVERY THERAPEUTICS, INC., priority 2014, dated 2019)
